Results reported in US20250115583A1, “BICYCLIC INDAZOLE GLUCOCORTICOID RECEPTOR ANTAGONISTS” (Corcept Therapeutics Incorporated, priority 2021, published 2025).

Target: glucocorticoid receptor (Homo sapiens (Human), UniProt P04150)
Assay: HepG2 TAT assay: inhibition of dexamethasone-induced tyrosine aminotransferase (TAT) activity
Type: cell-based
Details: HepG2 cells, challenge of 100 nM dexamethasone, 18-24 hr; IC50 converted to Ki by Cheng and Prusoff equation
Experimental: Glucocorticoid mediated activation of TAT occurs by transactivation of glucocorticoid response elements in the TAT promoter by glucocorticoid receptor-agonist complex.
HepG2 cells were cultured using MEME media supplemented with 10% (v/v) foetal bovine serum; 2 mM L-glutamine and 1% (v/v) NEAA at 37° C., 5%/95% (v/v) CO2/air.
Compounds were serially half log diluted in 100% (v/v) dimethylsulphoxide from a 10 mM stock.
HepG2 cells were then lysed with 30 μl of cell lysis buffer containing a protease inhibitor cocktail for 15 minutes at 4° C. […] After 2 hours incubation at 37° C. the reaction was terminated by the addition of 15 μl of 10M aqueous potassium hydroxide solution, and the plates incubated for a further 30 minutes at 37° C.
[compound] and fitting the data to a 4 parameter logistic equation.

Sequence of glucocorticoid receptor (P04150 whole entry): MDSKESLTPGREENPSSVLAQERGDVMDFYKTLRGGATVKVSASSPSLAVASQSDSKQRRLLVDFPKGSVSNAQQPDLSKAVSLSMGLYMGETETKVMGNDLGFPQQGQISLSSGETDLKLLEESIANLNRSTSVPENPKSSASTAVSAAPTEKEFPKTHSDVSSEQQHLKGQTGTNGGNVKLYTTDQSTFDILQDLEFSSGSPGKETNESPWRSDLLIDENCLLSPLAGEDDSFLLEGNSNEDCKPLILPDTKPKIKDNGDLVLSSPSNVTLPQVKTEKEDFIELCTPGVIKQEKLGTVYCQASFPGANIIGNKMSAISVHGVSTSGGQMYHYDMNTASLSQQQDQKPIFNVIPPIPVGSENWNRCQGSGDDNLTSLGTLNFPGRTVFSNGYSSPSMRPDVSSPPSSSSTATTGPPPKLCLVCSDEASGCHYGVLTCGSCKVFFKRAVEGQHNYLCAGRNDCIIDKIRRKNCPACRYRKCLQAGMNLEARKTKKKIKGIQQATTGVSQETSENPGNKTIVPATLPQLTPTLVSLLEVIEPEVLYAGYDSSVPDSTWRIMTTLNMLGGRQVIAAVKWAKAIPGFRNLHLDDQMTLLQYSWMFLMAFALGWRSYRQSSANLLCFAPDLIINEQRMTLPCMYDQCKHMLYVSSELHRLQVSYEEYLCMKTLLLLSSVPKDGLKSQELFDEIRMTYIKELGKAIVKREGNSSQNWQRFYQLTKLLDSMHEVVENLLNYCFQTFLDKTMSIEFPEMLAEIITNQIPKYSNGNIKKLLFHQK

| Ki [nM] | Molecule |
| --- | --- |
| 26 | Cc1cc2c(cnn2-c2ccc(F)cc2)cc1[C@@]12CN(C(=O)c3cccc(C#N)c3)C[C@@H]1[C@H]2c1ccccc1 (stereo in doubt) [Example 114, 3-(1-(1-(4-fluorophenyl)-6-methyl-1H-indazol-5-yl)-6-phenyl-3-azabicyclo[3.1.0]hexane-3-carbonyl)benzonitrile] |
| 7.2 | Cc1cc2c(cnn2-c2ccc(F)cc2)cc1[C@@]12CN(C(=O)c3cccc(C#N)n3)C[C@@H]1[C@H]2c1ccccc1 (stereo in doubt) [Example 164, 6-(1-(1-(4-fluorophenyl)-6-methyl-1H-indazol-5-yl)-6-phenyl-3-azabicyclo[3.1.0]hexane-3-carbonyl)picolinonitrile] |
| 44 | COC1(c2ccccc2)CC2CN(C(=O)OC(C)(C)C)CC2(c2cc3cnn(-c4ccc(F)cc4)c3cc2C)C1 (centres unmarked) [Example 18, tert-butyl 3a-(1-(4-fluorophenyl)-6-methyl-1H-indazol-5-yl)-5-methoxy-5-phenylhexahydrocyclopenta[c]pyrrole-2(1H)-carboxylate] |
| 370 | Cc1cc2c(cnn2-c2ccc(F)cc2)cc1C12CC(Oc3ccccc3)CC1CN(S(=O)(=O)c1cnn(C)c1)C2 (centres unmarked) [Example 44] |
| 220 | Cc1cc2c(cnn2-c2ccc(F)cc2)cc1C12CN(S(=O)(=O)c3cnn(C)c3)CC1CC(O)(c1ccccc1)C2 (centres unmarked) [Example 10, 3a-(1-(4-fluorophenyl)-6-methyl-1H-indazol-5-yl)-2-((1-methyl-1H-pyrazol-4-yl)sulfonyl)-5-phenyloctahydrocyclopenta[c]pyrrol-5-ol] |
| 37 | Cc1cc2c(cnn2-c2ccc(F)cc2)cc1[C@@]12CN(C(=O)c3cnn(C)c3)C[C@@H]1[C@H]2c1ccccc1 (single isomer, unassigned) [Example 129, (1-(1-(4-fluorophenyl)-6-methyl-1H-indazol-5-yl)-6-phenyl-3-azabicyclo[3.1.0]hexan-3-yl)(1-methyl-1H-pyrazol-4-yl)methanone] |
| 18 | Cc1cc2c(cnn2-c2ccc(F)cc2)cc1[C@@]12CN(C(=O)c3cc(C(F)(F)F)ccn3)C[C@@H]1[C@H]2c1ccccc1 (single isomer, unassigned) [Example 150, (1-(1-(4-fluorophenyl)-6-methyl-1H-indazol-5-yl)-6-phenyl-3-azabicyclo[3.1.0]hexan-3-yl)(4-(trifluoromethyl)pyridin-2-yl)methanone] |
| 270 | CC#CC1(OC)CC2CN(S(=O)(=O)c3cnn(C)c3)CC2(c2cc3cnn(-c4ccc(F)cc4)c3cc2C)C1 (centres unmarked) [Example 16] |
| 13 | Cc1cc2c(cnn2-c2ccc(F)cc2)cc1[C@@]12CN(C(=O)c3cc(C#N)ccn3)C[C@@H]1[C@H]2c1ccccc1 (single isomer, unassigned) [Example 149, 2-(1-(1-(4-fluorophenyl)-6-methyl-1H-indazol-5-yl)-6-phenyl-3-azabicyclo[3.1.0]hexane-3-carbonyl)isonicotinonitrile] |

| Molecule | Ki [nM] |
| --- | --- |
| 5-(6-((4,4-difluoropiperidin-1-yl)methyl)-3-((2-methyl-2H-1,2,3-triazol-4-yl)sulfonyl)-3-azabicyclo[3.1.0]hexan-1-yl)-1-(4-fluorophenyl)-6-methyl-1H-indazole [Example 181] | 250 |
| Cc1cc2c(cnn2-c2ccc(F)cc2)cc1[C@@]12CN(S(=O)(=O)CC(C)C)C[C@@H]1[C@H]2c1ccccc1 [Example 104] | 30 |
| CNS(=O)(=O)N1C[C@@H]2[C@@H](c3ccccc3)[C@]2(c2cc3cnn(-c4ccc(F)cc4)c3cc2C)C1 [Example 106] | 55 |
| Cc1cc2c(cnn2-c2ccc(F)cc2)cc1[C@]12CN(S(=O)(=O)c3cn(C)nn3)C[C@H]1[C@@H]2c1ccccc1 [Example 97] | 32 |
| Cc1cccc(NC(=O)[C@H]2[C@@H]3CN(S(=O)(=O)c4cnn(C)n4)C[C@@]32c2cc3cnn(-c4ccc(F)cc4)c3cc2C)c1 [Example 63] | 88 |
